Reference: PMC5365645, “Preclinical Pharmacokinetics and Pharmacodynamic Target of SCY-078, a First-in-Class Orally Active Antifungal Glucan Synthesis Inhibitor, in Murine Models of Disseminated Candidiasis” (Antimicrobial Agents and Chemotherapy, 2017)
Values after ≈ are worked out from the molar mass of the structure shown.

Key:
[1] = test system: C. glabrata isolate CG 5592; design: method as in PMID 25512406; details: cited from earlier work
in vivo [2] = test: in vivo; design: species or system female CD-1 mice; details: female, CD-1, mouse
Protocol: The pharmacokinetics and bioavailability of SCY-078 were evaluated in uninfected mouse, rat, and dog after p.o. and i.v. administration. The in vivo phases of the PK studies were performed at either […] (Waltham, MA) or MPI Research (Mattawan, MI) after an Institutional Animal Care and Use Committee (IACUC) review. […] and MPI Research are Association for Assessment and Accreditation of Laboratory Animal Care International (AAALAC)-approved facilities. […] The peak concentration (Cmax), the time to maximum concentration (Tmax), the half-life, and the AUC were determined from composite mean plasma concentration-time data for rodents and individual plasma concentration-time data for dogs. All doses and plasma concentrations of SCY-078 are presented as free base.

[3] = In vitro metabolic stability in hepatic microsomes, rodent summary; format: in vitro ADME, mouse and rat
Protocol: The metabolic stability of SCY-078 was assessed after incubation with mouse, rat, dog, and human liver microsomes (Table 2) ([10]). […] The half-lives in rodent, dog, and human liver microsomes were ≥125, ≥29, and ≥42 min, respectively.
The metabolic stability of SCY-078 was evaluated with male and female mouse, male rat, male and female dog, and mixed-gender human liver microsomes (XenoTech, Lenexa, KS). SCY-078 (1 μM) was incubated with pooled liver microsomes (0.5 mg protein/ml) for 0, 5, 10, 20, and 30 min at 37°C in the presence of NADPH. Aliquots were taken at each sampling time point and extracted with 5 volumes of ice-cold acetonitrile containing the internal standard (d9-SCY-078, 125 ng/ml). Supernatants from the incubation mixtures were analyzed for the parent compound by LC-MS/MS according to the conditions described below. The metabolic competency of microsomal preparations was established using the control compounds 7-ethoxycoumarin, propranolol, and verapamil. The in vitro intrinsic clearance (CLint), the CLint scaled to the in vivo intrinsic clearance (CL′int), and the half-life were determined for SCY-078 incubated with microsomes from each species.

[4] = design: method as in ref 5 = [5]; 5. Trucksis M , Garrett G , Bautmans A , Heirman I , Laethem M , Comisar WA , Maganti L , Bi S , Iwamoto M , O'Mara E , Wagner JA , Depre M , de Hoon J 2011 A phase I multiple-rising dose study evalua; details: single- and multiple-dose phase 1 and 2 clinical studies ref 5; cited from earlier work
in vivo [5] = details: female, CD-1, mouse; for AUC(0-inf) / AUC(0-t) / half-life: kidney; for AUC(0-inf) / AUC(0-t) / half-life / Kp: po; for Kp at 12 h / Kp: kidney/plasma; for Kp at 12 h: oral
Protocol: Female CD-1 mice (n = 5/sex/time point/group) weighing approximately 25 g were administered SCY-078 by oral gavage either once daily or as multiple twice-per-day (Q12h) treatments, with individual doses ranging between 3 and 100 mg/kg (6 to 150 mg/kg/day). Mice also received a single 1-mg/ml i.v. dose of SCY-078. Plasma specimens were collected prior to dosing and at 0.25, 0.5, 1, 2, 4, 6, 9, 12, 18, 24, 36, 48, and 60 h after the single i.v. dose and at the same time points from 1 h postdose onward following oral dose 13 on day 7 of treatment. On the first day of oral treatment, plasma specimens were collected immediately before each of the two doses and 1, 2, 4, 6, 9, and 12 h postdosing. […] Kidney tissues were collected at 2, 4, 12, 24, 36, 48, and 60 h after oral dose 13 on treatment day 7, blotted dry, and stored at approximately −80°C until analysis.
On the day of analysis, either treatment-naive (drug-free) kidney tissue or freshly thawed tissue samples from PK studies were weighed and homogenized in 3 volumes of phosphate-buffered saline. The density of kidney tissue used for the determination of volume was assumed to be 1.0 g/ml.
Whole-kidney tissue samples were homogenized in parallel by means of a Precellys 24 bead mill homogenizer (Bertin Technologies, Montigny le Bretonneux, France) using 2-ml Precellys tubes containing 1.4-mm-diameter ceramic beads (CK14) and a single 15-s cycle of 5,500 rpm. Parallel bead homogenization increased throughput and avoided potential cross-contamination of samples since each sample was wholly contained and homogenized within its own sealed vial with no direct contact between the homogenizing instrument or other samples.
Mouse plasma (50 μl) or kidney tissue homogenate (50 μl) was treated with 5 volumes of acetonitrile containing 50 ng of deuterium (d9)-labeled SCY-078 internal standard/ml to precipitate proteins. Treated samples were mixed on a 96-well plate shaker for ∼30 min and then centrifuged at approximately 4,000 × g and 15°C for 15 min. Supernatants were transferred to fresh 96-well plates for analysis by LC-MS/MS.

[6] = Plasma protein binding by equilibrium dialysis; format: in vitro ADME; details: pH 7.4
Protocol: Protein binding of [^3H]SCY-078 in mouse, rat, dog, and human plasma was determined by means of equilibrium dialysis and liquid scintillation counting. Tritium-labeled SCY-078 in ethanol was added to unlabeled SCY-078 in methanol to prepare stock solutions at 10, 100, and 1,000 μM SCY-078 with constant activity.
Protein binding was determined against isotonic phosphate-buffered saline (pH 7.4) at 37°C for 24 h. Aliquots (10 μl) of each stock solution were added to pooled DBA mouse (n = >10 animals), Sprague-Dawley rat, beagle dog, or human plasma (1 ml) to achieve final total concentrations of 0.1, 1, and 10 μM SCY-078. The final concentration of the organic solvent was 0.9% (vol/vol). Dialysis was performed in 1-ml acrylic dialysis cells (Scienceware, South Wayne, NJ), where plasma and buffer were separated by a 12.4-kDa cutoff membrane (Sigma, St. Louis, MO). After incubation, aliquots (100 μl) of plasma and phosphate buffer were counted for radioactivity (Beckman LS6500 liquid scintillation counter), and unbound fractions of SCY-078 were estimated based on the following calculation: unbound fraction = radioactivity (dpm/0.1 ml) in buffer/total radioactivity (dpm/0.1 ml) in plasma.

C. albicans MY1055 = test: In vitro MIC, broth microdilution CLSI M27-A3; format: cell-based; details: Candida albicans, 50% inhibition of fungal growth at 24 h
Protocol: A disseminated Candida infection was induced in C′5-deficient DBA/2N mice (Taconic Farms, Germantown, NY), weighing on average 20 g, by i.v. inoculation with C. albicans MY1055 (Merck Culture Collection). C. albicans MY1055 was cultured on Sabouraud dextrose agar (SDA; BBL, Cockeysville, MD) plates at 35°C for 24 h. Yeast cells were washed from the surface of agar plates into sterile saline, and the cell concentrations were quantitated by using a hemocytometer. Viable cell counts were confirmed by a serial 10-fold dilution of the cell suspension and plating on SDA plates. Plates were incubated for 24 to 48 h at 35°C, whereupon the numbers of CFU were determined. The in vitro activity of SCY-078 against the MY1055 isolate was evaluated using broth microdilution assays as described in CLSI M27-A3 ([39]).

SMILES: CC(C)[C@@H](C)[C@@]1(C)CC[C@]2(C)[C@H]3CC[C@@H]4[C@@]5(COC[C@@]4(C)[C@@H](OC[C@](C)(N)C(C)(C)C)[C@H](n4ncnc4-c4ccncc4)C5)C3=CC[C@@]2(C)[C@@H]1C(=O)O [SCY-078, (1S,4aR,6aS,7R,8R,10aR,10bR,12aR,14R,15R)-15-[[(2R)-2-amino-2,3,3-trimethylbutyl]oxy]-8-[(1R)-1,2-dimethylpropyl]-14-[5-(4-pyridinyl)-1H-1,2,4-triazol-1-yl]-1,6,6a,7,8,9,10,10a,10b,11,12,12a-dodecahydro-1,6a,8,10a-tetramethyl-4H-1,4a-propano-2H-phenanthro[1,2-c]pyran-7-carboxylic acid]
- MIC [1]: 0.25 µg/mL (≈ 0.342 µM)
- bioavailability (in vivo [2]; 6.25 mg/kg): > 41%
- bioavailability (in vivo [2]; 12 mg/kg): > 51%
- Dose normalized AUC0–∞ to a 1-mg/kg dose (in vivo [2]; iv): 1.4 µg·h/mL
- AUC(0-inf) (in vivo [2]; iv, 1 mg/kg): 1460 ng·h/mL
- Vd ss (in vivo [2]; iv, 1 mg/kg): 5.3 L/kg
- clearance (in vivo [2]; iv, 1 mg/kg): 11.3 mL/min/kg
- AUC(0-t) (in vivo [2]; iv, 1 mg/kg, AUC0–24): 1390 ng·h/mL
- Vd (in vivo [2]; iv, 1 mg/kg, Vd ss): 5.26 L/kg
- half-life (in vivo [2]; iv, 1 mg/kg, t1/2): ~5.5 h
- concentration at 4 h (in vivo [2]; po): 1490 ± 690 ng/mL
- AUC(0-inf) (in vivo [2]; po, 6.25 mg/kg): 9560 ng·h/mL
- Cmax (in vivo [2]; po, 6.25 mg/kg): 640 ng/mL
- Tmax (in vivo [2]; po, 6.25 mg/kg): 4 h
- concentration at 12 h (in vivo [2]; po, 6.25 mg/kg): 370 ± 60 ng/mL
- AUC(0-t) (in vivo [2]; po, 6.25 mg/kg, AUC0–12): 3110 ng·h/mL
- AUC(0-t) (in vivo [2]; po, 6.25 mg/kg, AUC0–24): 8360 ng·h/mL
- Cmax (in vivo [2]; po, 6.25 mg/kg, Cmax): 390 ng/mL
- half-life (in vivo [2]; po, 6.25 mg/kg, t1/2): 7.8 h
- AUC0–12 (in vivo [2]; po, 12 mg/kg): 15100 ng·h/mL
- AUC0–24 (in vivo [2]; po, 12 mg/kg): 22520 ng·h/mL
- AUC(0-inf) (in vivo [2]; po, 12 mg/kg): 28300 ng·h/mL
- Cmax (in vivo [2]; po, 12 mg/kg): 1610 ng/mL
- Tmax (in vivo [2]; po, 12 mg/kg): 6 h
- concentration at 12 h (in vivo [2]; po, 12 mg/kg): 850 ± 220 ng/mL
- AUC(0-t) (in vivo [2]; po, 12 mg/kg, AUC0–12): 7580 ng·h/mL
- AUC(0-t) (in vivo [2]; po, 12 mg/kg, AUC0–24): 22500 ng·h/mL
- Cmax (in vivo [2]; po, 12 mg/kg, Cmax): 900 ng/mL
- half-life (in vivo [2]; po, 12 mg/kg, Half-life in plasma): ~8.3 h
- half-life (in vivo [2]; po, 12 mg/kg, t1/2): 8.8 h
- Accumulation factor for AUC (in vivo [2]; po, 7 days): ~2 fold
- Accumulation factor for Cmax (in vivo [2]; po, 7 days): ~2 fold
- half-life at 1 μM ([3]; both (mouse), male (rat), pooled liver microsomes, rodent liver microsomes): ≥ 2.08 h
- CLint scaled at 1 μM ([3]; both (mouse), male (rat), pooled liver microsomes, rodent liver microsomes, read-out: CL′int (CLint scaled to in vivo intrinsic clearance)): < 0.04 mL/min/kg
- microsomal CLint at 1 μM ([3]; both (mouse), male (rat), pooled liver microsomes, rodents (mouse and rat) liver microsomes): ≤ 11 µL/min/mg
- remaining at 0.5 h, 1 µM ([3]; both sexes, mouse, rat, liver microsomes, rodent microsomes, read-out: % remaining after 30 min): ~85%
- Tolerability [4]: well tolerated
- AUC(0-inf) (in vivo [5]; 6.25 mg/kg): 198000 ng·h/mL
- AUC(0-t) (in vivo [5]; 6.25 mg/kg): 118000 ng·h/mL
- half-life (in vivo [5]; 6.25 mg/kg): 9.2 h
- AUC(0-inf) (in vivo [5]; 12 mg/kg): 700000 ng·h/mL
- AUC(0-t) (in vivo [5]; 12 mg/kg): 346000 ng·h/mL
- half-life (in vivo [5]; 12 mg/kg): 8.9 h
- Kp at 12 h (in vivo [5]; 6.25 mg/kg): 19
- Kp at 12 h (in vivo [5]; 12 mg/kg): 25.7
- Kp (in vivo [5]; 6.25 mg/kg): 21.5
- Kp (in vivo [5]; 12 mg/kg): 23.1
- fraction unbound at 24 h ([6]; DBA, mouse plasma): 0.002
- fraction unbound at 24 h, 0.1 μM ([6]; DBA, mouse plasma): 0.002
- fraction unbound at 24 h, 1 μM ([6]; DBA, mouse plasma): 0.002
- fraction unbound at 24 h, 10 μM ([6]; DBA, mouse plasma): 0.002
- fraction unbound at 24 h, 0.1 μM ([6]; Sprague-Dawley, rat plasma): 0.002
- fraction unbound at 24 h, 1 μM ([6]; Sprague-Dawley, rat plasma): 0.003
- fraction unbound at 24 h, 10 μM ([6]; Sprague-Dawley, rat plasma): 0.002
- fraction unbound at 24 h, 0.1 μM ([6]; beagle, dog plasma): 0.004
- fraction unbound at 24 h, 1 μM ([6]; beagle, dog plasma): 0.005
- fraction unbound at 24 h, 10 μM ([6]; beagle, dog plasma): 0.003
- fraction unbound at 24 h, 0.1 μM ([6]; human plasma): 0.002
- fraction unbound at 24 h, 1 μM ([6]; human plasma): 0.003
- fraction unbound at 24 h, 10 μM ([6]; human plasma): 0.004
- MIC (C. albicans MY1055): 0.03 µg/mL (≈ 0.0411 µM)
